According to US20080234233A1, “MEDICAMENT FOR TREATMENT OF NEURODEGENERATIVE DISEASES” (INSTITUTE OF MEDICINAL MOLECULAR DESIGN INC., priority 2002, published 2008):

Test system: NF-κ B activation
Assay: Inhibitory activity of NF-κB activation, luciferase reporter assay under TNF-α stimulation in HepG2
Type: cell-based, human
Details: HepG2, TNF-α 40 ng/ml, 4 hours; for inhibition at 1 µg/mL / inhibition at 10 µg/mL: Homo sapiens, read-out: Inhibitory rate against NF-κB activation (%)
In short: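 HepG2 cells transiently transfected with luciferase reporter carrying five tandem NF-κB binding sites, then stimulated with TNF-α (40 ng/ml) ± compound for 4 hours. Luminescent luciferase activity measured; inhibition expressed relative to activity without compound.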

| Structure (SMILES) | Inhibitory rate against NF-κB activation (%) (Drug concentration at 1 μg/mL) | Inhibitory rate against NF-κB activation (%) (Drug concentration at 10 μg/mL) | inhibition at 1 µg/mL (Drug concentration at 1 μg/mL) [%] | inhibition at 10 µg/mL (Drug concentration at 10 μg/mL) [%] |
| --- | --- | --- | --- | --- |
| COc1ccc(Oc2ccccc2)cc1NC(=O)c1cc(Cl)ccc1O [compound 171] | 90.6 | 98.1 |  |  |
| Cc1ccc(-c2ccccc2)cc1NC(=O)c1cc(Cl)ccc1O [compound 172] | 93.7 | 96.4 |  |  |
| COc1ccc(C(C)(C)c2ccccc2)cc1NC(=O)c1cc(Cl)ccc1O [compound 173] | 86.4 | 98.3 |  |  |
| O=C(Nc1cc(N2CCOCC2)ccc1[N+](=O)[O-])c1cc(Cl)ccc1O [compound 174] |  | 89.6 |  |  |
| CCCCc1ccc([N+](=O)[O-])cc1NC(=O)c1cc(Cl)ccc1O [compound 176] | 96.0 | 99.5 |  |  |
| CCC(C)(C)c1ccc(O)c(NC(=O)c2cc(Cl)ccc2O)c1 [compound 177] | 87.8 | 99.4 |  |  |
| COc1ccc(C)cc1NC(=O)c1cc(Cl)ccc1O [compound 178] |  | 89.7 |  |  |
| O=C(Nc1cc(F)ccc1F)c1cc(Cl)ccc1O [compound 179] | 92.5 | 93.4 |  |  |
| O=C(Nc1cc(F)cc(F)c1)c1cc(Cl)ccc1O [compound 180] | 90.7 | 93.7 |  |  |
| O=C(Nc1cc(Cl)cc(Cl)c1)c1cc2ccccc2cc1O [compound 181] |  | 95.1 |  |  |
| O=C(Nc1cc(Cl)cc(Cl)c1)c1c(O)ccc2ccccc12 [compound 182] | 85.3 | 90.2 |  |  |
| COc1ccc(OC)c(NC(=O)c2cc3ccccc3cc2O)c1 [compound 183] |  | 86.8 |  |  |
| CC(C)(C)c1cc(NC(=O)c2cc(Cl)cnc2O)cc(C(C)(C)C)c1 [compound 184] | 53.6 | 63.8 |  |  |
| CC(C)(C)c1csc(NC(=O)c2cc(Br)ccc2O)n1 [compound 185, 5-Bromo-N-{4-[(1,1-dimethyl)ethyl]thiazol-2-yl}-2-hydroxybenzamide] |  |  | 88.4 | 95.2 |
| CC(C)(C)c1nc(NC(=O)c2cc(Br)ccc2O)sc1Br [compound 186, 5-Bromo-N-{5-bromo-4-[(1,1-dimethyl)ethyl]thiazol-2-yl}-2-hydroxybenzamide] |  |  | 96.5 | 98.7 |
| CC(C)(C)c1nc(NC(=O)c2cc(Cl)ccc2O)sc1C#N [compound 188, 5-Chloro-N-{5-cyano-4-[(1,1-dimethyl)ethyl]thiazol-2-yl}-2-hydroxybenzamide] |  |  | 92.6 | 92.4 |
| CC(C)(C)c1nc(NC(=O)c2cc(Br)ccc2O)sc1C#N [compound 189] | 20.0 | 93.8 |  |  |
| Cc1cnc(NC(=O)c2cc(Br)ccc2O)s1 [compound 190] |  | 69.7 |  |  |
| Cc1nc(NC(=O)c2cc(Br)ccc2O)sc1C [compound 191] |  | 67.2 |  |  |
| Cc1sc(NC(=O)c2cc(Br)ccc2O)nc1-c1ccccc1 [compound 192] | 83.6 | 94.4 |  |  |
| Cc1nc(NC(=O)c2cc(Br)ccc2O)sc1-c1ccc(F)cc1 [compound 193, 5-Bromo-N-[4-methyl-5-(4-fluorophenyl)thiazol-2-yl]-2-hydroxybenzamide] |  |  |  | 82 |
| Cc1nc(NC(=O)c2cc(Br)ccc2O)sc1-c1cccc(C(F)(F)F)c1 [compound 194, 5-Bromo-N-{4-methyl-5-[3-(trifluoromethyl)phenyl]thiazol-2-yl}-2-hydroxy-benzamide] |  |  |  | 71.7 |

| Structure (SMILES) | Inhibitory rate against NF-κB activation (%) (Drug concentration at 1 μg/mL) | Inhibitory rate against NF-κB activation (%) (Drug concentration at 10 μg/mL) | inhibition at 1 µg/mL (Drug concentration at 1 μg/mL) [%] | inhibition at 10 µg/mL (Drug concentration at 10 μg/mL) [%] |
| --- | --- | --- | --- | --- |
| CC(C)c1nc(NC(=O)c2cc(Br)ccc2O)sc1-c1ccccc1 [compound 197, 5-Bromo-N-(4-isopropyl-5-phenylthiazol-2-yl)-2-hydroxybenzamide] |  |  | 70.1 | 96.1 |
| CCCCc1nc(NC(=O)c2cc(Br)ccc2O)sc1-c1ccccc1 [compound 198, 5-Bromo-N-(4-butyl-5-phenylthiazol-2-yl)-2-hydroxybenzamide] |  |  | 46.1 | 88.7 |
| CC(=O)Oc1ccc(Cl)cc1C(=O)Nc1nc(C(C)(C)C)c(C(=O)C(C)(C)C)s1 [compound 200] | 95.0 | 97.7 |  |  |
| CCOC(=O)c1sc(NC(=O)c2cc(Br)ccc2O)nc1C(C)(C)C [compound 202, 2-(5-Bromo-2-hydroxybenzoyl)amino-4-[(1,1-dimethyl)ethyl]thiazole-5-carboxylic acid ethyl ester] |  |  | 84.5 | 92.4 |
| CC(C)(C)c1nc(NC(=O)c2cc(Br)ccc2O)sc1N1CCCCC1 [compound 204, 5-Bromo-N-{4-[(1,1-dimethyl)ethyl]-5-piperidinothiazol-2-yl}-2-hydroxybenzamide] |  |  | 93.6 | 97.8 |
| CC(C)(C)c1nc(NC(=O)c2cc(Br)ccc2O)sc1N1CCOCC1 [compound 205, 5-Bromo-N-{4-[(1,1-dimethyl)ethyl]-5-morpholinothiazol-2-yl}-2-hydroxybenzamide] |  |  | 87.8 | 96.8 |
| CN1CCN(c2sc(NC(=O)c3cc(Br)ccc3O)nc2C(C)(C)C)CC1 [compound 206, 5-Bromo-N-{4-[(1,1-dimethyl)ethyl]-5-(4-methylpiperazin-1-yl)thiazol-2-yl}-2-hydroxybenzamide] |  |  | 36.3 | 89.6 |
| CC(C)(C)c1nc(NC(=O)c2cc(Br)ccc2O)sc1N1CCN(c2ccccc2)CC1 [compound 207, 5-Bromo-N-{4-[(1,1-dimethyl)ethyl]-5-(4-phenylpiperazin-1-yl)thiazol-2-yl}-2-hydroxybenzamide] |  |  | 92.5 | 95.9 |
| O=C(Nc1nc(-c2ccccc2)cs1)c1cc(Br)ccc1O [compound 208] |  | 78.8 |  |  |
| O=C(O)Cc1sc(NC(=O)c2cc(Br)ccc2O)nc1-c1ccccc1 [compound 210] |  | 72.1 |  |  |
| O=C(Nc1nc(Cc2ccccc2)c(-c2ccccc2)s1)c1cc(Br)ccc1O [compound 212] | 79.7 | 95.0 |  |  |
| O=C(Nc1nc(C(F)(F)F)c(-c2ccccc2)s1)c1cc(Br)ccc1O [compound 213] | 85.1 | 89.4 |  |  |
| CC(=O)c1sc(NC(=O)c2cc(Br)ccc2O)nc1-c1ccccc1 [compound 214, 5-Bromo-N-(5-acetyl-4-phenylthiazol-2-yl)-2-hydroxybenzamide] |  |  | 70.2 | 95.9 |
| O=C(Nc1nc(-c2ccccc2)c(C(=O)c2ccccc2)s1)c1cc(Br)ccc1O [compound 215, 5-Bromo-N-(5-benzoyl-4-phenylthiazol-2-yl)-2-hydroxybenzamide] |  |  | 90.7 | 97.3 |
| CCOC(=O)c1sc(NC(=O)c2cc(Br)ccc2O)nc1-c1ccccc1 [compound 216, 2-(5-bromo-2-hydroxybenzoyl)amino-4-phenylthiazole-5-carboxylic acid ethyl ester] |  |  | 55.8 | 82.8 |
| CCOC(=O)c1sc(NC(=O)c2cc(Br)ccc2O)nc1-c1ccccc1 [compound 218] | 80.7 | 94.2 |  |  |
| CCOC(=O)c1sc(NC(=O)c2cc(Br)ccc2O)nc1-c1c(F)c(F)c(F)c(F)c1F [compound 219, Ethyl 2-(5-bromo-2-hydroxybenzoyl)amino-4-(pentafluorophenyl)thiazole-5-carboxylate] |  |  | 82.2 | 96 |
| CNC(=O)c1sc(NC(=O)c2cc(Br)ccc2O)nc1-c1ccccc1 [compound 220] | 50.8 | 58.6 |  |  |
| CCNC(=O)c1sc(NC(=O)c2cc(Br)ccc2O)nc1-c1ccccc1 [compound 221] | 51.9 | 84.0 |  |  |
| CC(C)NC(=O)c1sc(NC(=O)c2cc(Br)ccc2O)nc1-c1ccccc1 [compound 222] | 49.6 | 91.3 |  |  |
| O=C(Nc1nc(-c2ccccc2)c(C(=O)NCCc2ccccc2)s1)c1cc(Br)ccc1O [compound 223] | 33.3 | 60.4 |  |  |
